Measured values as given in article PMC12951562, “SH2scan: Mapping SH2 Domain-Ligand Binding Selectivity for Inhibitors and Degraders” (Journal of Medicinal Chemistry, 2026).
Read-outs that look alike come from different tables or passages of the source. Non-standard residues stand in square brackets, D forms with d. Residues, ends and D or L forms follow the SMILES beside them. *: point of attachment. pY = N[C@@H](Cc1ccc(OP(=O)(O)O)cc1)C(=O)O; Caffeoyl = O=C(/C=C/c1ccc(O)c(O)c1)*

Key:
Test in all cases: biochemical
Assay type in all cases: binding
BRK = molecular target: T1, BRK (Homo sapiens, UniProt Q13882); conditions: for remaining activity at 10 µM: read-out: percent of DMSO vehicle control
T1 construct: the DNA-tagged SH2 domain concentrations used in this study were <0.1 nM; made in house; host or cells: HEK293 (transient transfection; unpurified extract)

LNK (SH2B3) = molecular target: T2, LNK (SH2B3) (Homo sapiens, UniProt Q9UQQ2); conditions: for remaining activity at 10 µM: read-out: percent of DMSO vehicle control
T2 construct: the DNA-tagged SH2 domain concentrations used in this study were <0.1 nM; made in house; host or cells: HEK293 (transient transfection, unpurified extract)

MIST = molecular target: T3, MIST (Homo sapiens, UniProt Q7Z7G1)
T3 construct: the DNA-tagged SH2 domain concentrations used in this study were <0.1 nM; made in house; host or cells: HEK293 (transient transfection, unpurified extract)
T3 sequence (Q7Z7G1 309-419 limits assumed): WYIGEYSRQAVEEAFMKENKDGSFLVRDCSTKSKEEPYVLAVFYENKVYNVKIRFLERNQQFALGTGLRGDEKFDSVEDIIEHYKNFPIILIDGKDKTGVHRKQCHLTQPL

PIK3R1(SH2dom.C-term.) = molecular target: T4, PIK3R1(SH2dom.C-term.) (Homo sapiens, UniProt P27986); conditions: for remaining activity at 10 µM: read-out: percent of DMSO vehicle control
T4 construct: SH2dom.C-term. denotes SH2 domain closest to C-terminus of protein; made in house; host or cells: HEK293 (transient transfection, unpurified extract)

PLCG1(SH2dom.C-term.) = molecular target: T5, PLCG1(SH2dom.C-term.) (Homo sapiens, UniProt P19174); conditions: for remaining activity at 10 µM: read-out: percent of DMSO vehicle control
T5 construct: SH2dom.C-term. denotes SH2 domain closest to C-terminus of protein; made in house; host or cells: HEK293 (transient transfection, unpurified extract)
T5 sequence (P19174 668-756 limits assumed): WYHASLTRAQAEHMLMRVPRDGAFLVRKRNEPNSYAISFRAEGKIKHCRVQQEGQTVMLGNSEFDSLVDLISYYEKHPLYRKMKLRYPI

SHC2 = molecular target: T6, SHC2 (Homo sapiens, UniProt P98077); conditions: for remaining activity at 10 µM: read-out: percent of DMSO vehicle control
T6 construct: made in house; host or cells: HEK293 (transient transfection), unpurified extract
T6 sequence (P98077 1-582): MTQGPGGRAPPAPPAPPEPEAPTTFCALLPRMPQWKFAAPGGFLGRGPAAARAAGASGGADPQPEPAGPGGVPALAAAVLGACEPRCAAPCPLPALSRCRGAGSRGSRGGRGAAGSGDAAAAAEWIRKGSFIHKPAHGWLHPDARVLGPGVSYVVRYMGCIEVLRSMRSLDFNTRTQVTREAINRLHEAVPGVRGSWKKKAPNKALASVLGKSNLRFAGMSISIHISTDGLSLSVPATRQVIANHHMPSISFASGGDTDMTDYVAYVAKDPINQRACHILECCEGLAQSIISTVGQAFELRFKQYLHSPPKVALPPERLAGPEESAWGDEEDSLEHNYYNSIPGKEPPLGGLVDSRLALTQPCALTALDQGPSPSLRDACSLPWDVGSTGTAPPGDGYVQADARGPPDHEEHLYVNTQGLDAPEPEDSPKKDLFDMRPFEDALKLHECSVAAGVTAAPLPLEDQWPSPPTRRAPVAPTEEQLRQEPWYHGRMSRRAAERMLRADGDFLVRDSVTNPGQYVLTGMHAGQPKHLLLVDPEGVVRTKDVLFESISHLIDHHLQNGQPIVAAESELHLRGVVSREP

SH2D1A = molecular target: T7, SH2D1A (Homo sapiens, UniProt O60880); conditions: for remaining activity at 10 µM: read-out: percent of DMSO vehicle control
T7 construct: made in house; host or cells: HEK293 (transient transfection), unpurified extract
T7 sequence (O60880 1-128): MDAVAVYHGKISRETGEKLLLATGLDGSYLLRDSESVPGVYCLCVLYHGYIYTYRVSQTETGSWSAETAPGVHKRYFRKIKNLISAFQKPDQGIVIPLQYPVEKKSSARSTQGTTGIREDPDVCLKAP

[1] = molecular target: T8, STAT3(E616del)-nonphosphorylated (Homo sapiens, UniProt P40763, DEL616-616)
T8 construct: made in house; host or cells: HEK293 (transient transfection), unpurified extract, dephosphorylated by endogenous phosphatases

STAT5B(N642H) = molecular target: T9, STAT5B(N642H) (Homo sapiens, UniProt P51692, N642H)
T9 construct: made in house; host or cells: HEK293 (transient transfection), unpurified extract
T9 sequence (P51692 1-787 N642H): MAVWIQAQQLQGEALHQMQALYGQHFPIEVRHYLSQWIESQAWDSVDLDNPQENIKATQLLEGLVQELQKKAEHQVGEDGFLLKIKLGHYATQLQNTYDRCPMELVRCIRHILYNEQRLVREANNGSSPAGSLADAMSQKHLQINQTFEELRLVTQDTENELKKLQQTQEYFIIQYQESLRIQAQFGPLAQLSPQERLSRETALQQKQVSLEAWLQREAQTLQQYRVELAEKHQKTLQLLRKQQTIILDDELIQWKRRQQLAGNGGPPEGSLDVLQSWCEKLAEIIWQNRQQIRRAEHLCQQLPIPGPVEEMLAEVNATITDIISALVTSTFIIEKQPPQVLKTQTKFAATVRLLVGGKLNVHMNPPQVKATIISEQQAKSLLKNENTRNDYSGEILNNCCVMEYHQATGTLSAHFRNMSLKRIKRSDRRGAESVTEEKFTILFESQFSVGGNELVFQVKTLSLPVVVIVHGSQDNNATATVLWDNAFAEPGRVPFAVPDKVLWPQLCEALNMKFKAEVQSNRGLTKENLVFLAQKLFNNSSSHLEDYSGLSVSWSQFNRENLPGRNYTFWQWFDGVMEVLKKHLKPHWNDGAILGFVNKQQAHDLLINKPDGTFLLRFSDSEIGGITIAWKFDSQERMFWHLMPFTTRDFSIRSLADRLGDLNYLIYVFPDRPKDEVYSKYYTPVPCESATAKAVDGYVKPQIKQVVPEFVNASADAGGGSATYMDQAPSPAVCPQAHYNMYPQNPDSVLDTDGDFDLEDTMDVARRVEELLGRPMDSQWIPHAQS

[2] = read-out: percent of DMSO vehicle control
[3] = primary screen, 10 μM, read-out: percent of DMSO vehicle control

CC[C@H](C)[C@H](NC(=O)[C@H](CCC(=O)O)NC(=O)[C@H](CCC(=O)O)NC(=O)[C@H](Cc1ccc(OP(=O)(O)O)cc1)NC(C)=O)C(=O)N[C@@H](CCC(=O)O)C(N)=O [Ac-pYEEIE-NH2] (Ac-[pY]EEIE-NH2)
percent of DMSO vehicle control (BRK; primary screen, 10 μM): 101.4% | percent of DMSO vehicle control (LNK (SH2B3); primary screen, 10 μM): 72.0% | percent of DMSO vehicle control (MIST; primary screen, 10 μM): 55.1% | percent of DMSO vehicle control (PIK3R1(SH2dom.C-term.); primary screen, 10 μM): 35.8±9.3% | percent of DMSO vehicle control (PLCG1(SH2dom.C-term.); primary screen, 10 μM): 37.9±3.6% | percent of DMSO vehicle control (SHC2; primary screen, 10 μM): 138.0% | percent of DMSO vehicle control (SH2D1A; primary screen, 10 μM): 93.4% | percent of DMSO vehicle control ([1]; primary screen, 10 μM): 86.7±0.4% | percent of DMSO vehicle control (STAT5B(N642H); primary screen, 10 μM): 115.5%

CC(=O)N[C@@H](Cc1ccc(CP(=O)(O)O)cc1)C(=O)NC1(C(=O)N[C@@H](CC(N)=O)C(=O)NCCCc2c(O)ccc3ccccc23)CCCCC1 [CGP78850]
remaining activity at 10 µM (BRK): 117 ± 12.5% | remaining activity at 10 µM (LNK (SH2B3)): 79.1 ± 5.6% | percent of DMSO vehicle control at 10 µM (MIST; [2]): 102 ± 2.3% | Kd (PIK3R1(SH2dom.C-term.)): 150 nM | remaining activity at 10 µM (PIK3R1(SH2dom.C-term.)): 0% | remaining activity at 10 µM (PLCG1(SH2dom.C-term.)): 96.8 ± 4.1% | remaining activity at 10 µM (SHC2): 100 ± 8.5% | remaining activity at 10 µM (SH2D1A): 63.8 ± 17.1% | percent of DMSO vehicle control at 10 µM [1, 2]: 71.8 ± 6.4% | percent of DMSO vehicle control at 10 µM (STAT5B(N642H); [2]): 107 ± 9.8%

CC[C@H](C)[C@H](NC(=O)[C@H](CCC(=O)O)NC(=O)[C@H](CCC(=O)O)NC(=O)[C@H](Cc1ccc(OP(=O)(O)O)cc1)NC(=O)/C=C/c1ccc(O)c(O)c1)C(=O)N[C@@H](CCC(=O)O)C(=O)O [Caffeic acid-pYEEIE] (Caffeoyl-[pY]EEIE-OH)
Kd (BRK): 24 ± 3.9 nM | remaining activity at 10 µM (BRK): 0% | Kd (LNK (SH2B3)): 500 ± 410 nM | remaining activity at 10 µM (LNK (SH2B3)): 0.4 ± 0.1% | percent of DMSO vehicle control at 10 µM (MIST; [2]): 72.9 ± 1.4% | Kd (PIK3R1(SH2dom.C-term.)): 140 ± 100 nM | remaining activity at 10 µM (PIK3R1(SH2dom.C-term.)): 0.2 ± 0.1% | Kd (PLCG1(SH2dom.C-term.)): 14 ± 11 nM | remaining activity at 10 µM (PLCG1(SH2dom.C-term.)): 0% | Kd (SHC2): 580 ± 330 nM | remaining activity at 10 µM (SHC2): 0.3 ± 0.1% | remaining activity at 10 µM (SH2D1A): 79.8 ± 21.3% | percent of DMSO vehicle control at 10 µM [1, 2]: 85.5 ± 0.3% | Kd (STAT5B(N642H)): 2400 ± 2300 nM | percent of DMSO vehicle control at 10 µM (STAT5B(N642H); [2]): 9.4 ± 1%

O=C(CCl)Nc1cccc(CNC(=O)[C@H](Cc2ccc(OP(=O)(O)O)cc2)NC(=O)Cc2ccc(F)cc2)c1 [MN551]
remaining activity at 10 µM (BRK; primary screen, 10 μM): 4.7 ± 0.7% | Kd (LNK (SH2B3); dose-response, read-out: KD): 3900 ± 710 nM | remaining activity at 10 µM (LNK (SH2B3); primary screen, 10 μM): 17.7 ± 5.5% | remaining activity at 10 µM (MIST; [3]): 102% | remaining activity at 10 µM (PIK3R1(SH2dom.C-term.); primary screen, 10 μM): 52.4% | remaining activity at 10 µM (PLCG1(SH2dom.C-term.); primary screen, 10 μM): 64.1 ± 4.5% | remaining activity at 10 µM (SHC2; primary screen, 10 μM): 82.9 ± 1.7% | remaining activity at 10 µM (SH2D1A; primary screen, 10 μM): 77.9 ± 2.2% | remaining activity at 10 µM [1, 3]: 203% | remaining activity at 10 µM (STAT5B(N642H); [3]): 76.9%
